Results published in patent publication US7202057B2 (Ortho-McNeil Pharmaceutical, Inc., priority 2000, dated 2007).

Legend:
[1] = target: T1, guinea pig histamine H4 receptor (Cavia porcellus, UniProt Q91ZY3); settings: read-out: Guinea Pig Ki
[2] = target: T2, human histamine H4 receptor (Homo sapiens, UniProt Q9H3N8)
[3] = target: T1, guinea pig histamine H4 receptor; settings: read-out: ^3H-histamine Kd
[4] = target: T2, human histamine H4 receptor; settings: pH 4

T2 sequence (Q9H3N8 whole entry): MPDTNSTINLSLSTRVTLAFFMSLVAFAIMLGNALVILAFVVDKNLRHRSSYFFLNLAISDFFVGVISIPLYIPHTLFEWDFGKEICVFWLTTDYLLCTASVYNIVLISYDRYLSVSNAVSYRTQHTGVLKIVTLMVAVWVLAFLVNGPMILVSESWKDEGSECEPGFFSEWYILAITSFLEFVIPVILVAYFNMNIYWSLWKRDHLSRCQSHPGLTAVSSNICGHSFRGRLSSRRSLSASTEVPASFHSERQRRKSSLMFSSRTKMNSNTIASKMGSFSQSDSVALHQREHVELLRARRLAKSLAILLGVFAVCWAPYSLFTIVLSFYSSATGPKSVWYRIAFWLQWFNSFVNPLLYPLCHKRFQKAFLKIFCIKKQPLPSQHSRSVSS

| Compound | Ki [1] [nM] | also measured |
| --- | --- | --- |
| C[C@@H](N)Cc1c[nH]cn1 [R-α-methylhistamine] | 486 |  |
| CNCCc1c[nH]cn1 [N-methylhistamine] | 220 |  |
| N=C(N)SCCc1cnc[nH]1 [Imetit] | 30 |  |
| S=C(NC1CCCCC1)N1CCC(c2cnc[nH]2)CC1 [Thioperamide] | 83 |  |
| NCCc1c[nH]cn1 [Histamine] | 27 | Activation of the receptor (decrease of forskolin-raised cAMP) [2]: specifically activated |
| NCCc1cnc[nH]1 [^3H-histamine] |  | Kd [3]: 20 nM; Binding affinity in words [4]: high affinity |
| NC(=NCc1ccc(Cl)cc1)SCCCc1cnc[nH]1 [Clobenpropit] | 3.6 |  |
